The source of these data is ChEMBL document CHEMBL1201862, “PubChem BioAssay data set” (2004).

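96-well plates; 48 h exposure; 5 concentrations. Endpoints by linear interpolation between flanking doses. Not reached: highest tested concentration assigned. Abbreviation: GI50, concentration required for 50% inhibition of growth.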 Calls of active or inactive are those of the source. Cut-off read from the data, not from the text of the source: active = GI50 up to about 1.1 µM and inactive = higher. Where only a bound is given, the exact number is not on record here.

By GI50 is commonly meant the concentration giving 50% growth inhibition.

What all share (assay): DTP human tumour cell line panel, 48 h
Assay [1] has as its system EKVX.
Assay [2] has as its system SR.
Assay [3] relates to SW-620.
Assay [4] relates to SK-MEL-28.
The test system of assay [5] is HCT-15.
Assay [6] deals with UO-31.
Assay [7] has as its system NCI-H460.
In assay [8] the test system is HCT-116.
The subject of assay [9] is SK-MEL-5.
Assay [10] has as its system HOP-62.
Assay [11] relates to SF-539.
Assay [12] has as its system OVCAR-3.
Assay [13] concerns RXF 393.
The test system of assay [14] is MOLT-4.
For assay [15], the system named is SF-295.
The subject of assay [16] is NCI-H226.

Consider `CCCCCCCCCC(=O)OCC1OC(n2cc(F)c(=O)[nH]c2=O)C(NC(=O)OCc2ccccc2)C(OC(=O)CCCCCCCCC)C1O` (stereo unspecified), for which the GI50 is 31.6 µM (inactive) in assay [1]; 17.5 µM (inactive) in assay [2]; 26.4 µM (inactive) in assay [3]; 42.1 µM (inactive) in [4]; 35.2 µM in [5]; 40.2 µM (inactive) in [6]. Besides, the GI50 in [7] was > 10 µM (inactive); in assay [8], 14.9 µM (inactive); in assay [9] it was 20.3 µM (inactive); in assay [10], > 100 µM (inactive); in assay [11], 40.8 µM (inactive); in assay [12], 21.2 µM (inactive). Also, the figures for the GI50 in assay [13], in assay [14] and in [15] were 18.8 µM (inactive), 18.7 µM (inactive) and 40 µM (inactive), respectively.

On to `CCCCc1c2c([n+]([O-])c3c1CCCC3)CCCC2`, for which the GI50 in assay [1] was > 100 µM (inactive); in assay [2], 29.6 µM (inactive); in assay [3], > 100 µM (inactive); in assay [4], 32.8 µM (inactive); in [5], 21.6 µM; in [6], 61.1 µM (inactive). Further, the GI50 is > 100 µM (inactive) in assay [7]; 65.2 µM (inactive) in assay [8]; 28.4 µM (inactive) in assay [9]; > 100 µM (inactive) in assay [10]; > 100 µM (inactive) in assay [11]; 31 µM (inactive) in assay [12]. Also, the GI50 was 6.59 µM (inactive) in assay [14], 28 µM (inactive) in assay [15] and > 100 µM (inactive) in [16].

For `Cc1cc2nc3c(C(OC4OC(CO)C(O)C(O)C4O)C(O)CO)nn(-c4ccc(F)cc4)c3nc2cc1C` (stereo unspecified), the GI50 in assay [1] was > 100 µM (inactive); in [2] it was > 100 µM (inactive); in assay [4], > 100 µM (inactive); in [5] it was over 100 µM; in assay [6], > 100 µM (inactive); in assay [7], > 100 µM (inactive). The GI50 in assay [8], in assay [10], in [11], in [12], in assay [13] and in assay [14] was > 100 µM (inactive) each time. In assay [15], the GI50 is > 100 µM (inactive).

Turning to `CCOC(=O)C(=O)Nc1c(C)cccc1C`, the GI50 in [1] was > 100 µM (inactive); in assay [3], > 100 µM (inactive); in assay [4], > 100 µM (inactive); in assay [5] it was over 100 µM; in [6], > 100 µM (inactive); in assay [7] it was > 100 µM (inactive). Besides, the GI50 in assay [8], in assay [10], in assay [11], in assay [12], in assay [13] and in [15] was > 100 µM (inactive) in each case. For the same molecule, in assay [16], the GI50 was > 100 µM (inactive).

Consider `Cc1n[nH]c(=S)n(C)c1=S`, for which the GI50 is 56.1 µM (inactive) in [1]; > 100 µM (inactive) in assay [3]; > 100 µM (inactive) in assay [4]; over 100 µM in assay [5]; > 100 µM (inactive) in assay [6]; > 100 µM (inactive) in [7]. Also, the GI50 in [8], in [10], in assay [11], in assay [12], in assay [13] and in [14] was > 100 µM (inactive) in each case. The GI50 in assay [15] and in assay [16] was > 100 µM (inactive) throughout.

With `COc1ccccc1C12OC(=O)C1(C)Oc1ccccc1C2=O` (stereo unspecified), the GI50 in [1] is > 100 µM (inactive); in [3] it was > 100 µM (inactive); in [4], > 100 µM (inactive); in assay [5] it was over 100 µM; in assay [6] it was > 100 µM (inactive); in [7] it was > 100 µM (inactive). For the same molecule, the GI50 in [8], in [9], in assay [10], in [11], in assay [12] and in assay [13] was > 100 µM (inactive) in each case. Moreover, the GI50 in [14], in assay [15] and in [16] was > 100 µM (inactive) throughout.

For the molecule `Nc1ccc(C(=O)N/C(=C\c2ccc3c(c2)OCO3)c2nc3ccccc3s2)cc1`, the GI50 in assay [1] is 12.9 µM (inactive); in assay [2], 6.01 µM (inactive); in [3] it was 11.5 µM (inactive); in [4], 13.2 µM (inactive); in assay [5], 11.3 µM; in [6] it was 15.6 µM (inactive). Moreover, the GI50 in assay [9] is 13.7 µM (inactive); in assay [11], 17.6 µM (inactive); in assay [12], 16.9 µM (inactive); in assay [13], 14.8 µM (inactive); in assay [14], 2.79 µM (inactive); in assay [15] it was 16.7 µM (inactive).

Turning to `N#Cc1c(C[n+]2ccccc2)c2ccccc2oc1=O`, the GI50 in assay [1] was > 100 µM (inactive); in assay [2], > 100 µM (inactive); in [3], > 100 µM (inactive); in assay [4] it was > 100 µM (inactive); in assay [5] it was over 100 µM; in assay [6] it was > 100 µM (inactive). The GI50 in [7], in assay [8], in assay [9], in [10], in assay [11] and in [12] was > 100 µM (inactive) in each case. The GI50 in assay [14], in assay [15] and in assay [16] was > 100 µM (inactive) throughout.

For the molecule `CC1=C(c2nc3ccccc3s2)C(=O)OC1(C)C`, the GI50 in assay [1] was > 100 µM (inactive); in assay [2], > 100 µM (inactive); in assay [3] it was > 100 µM (inactive); in [4], > 100 µM (inactive); in assay [5] it was over 100 µM; in [6], > 100 µM (inactive). Besides, the GI50 in [7], in [8], in assay [9], in assay [10], in [11] and in assay [12] was > 100 µM (inactive) each time. Besides, the GI50 in assay [14], in assay [15] and in assay [16] was > 100 µM (inactive) throughout.

With `O=[N+]([O-])c1ccc2nc(/C(=N/Nc3ccccc3)C(O)c3ccc(C(O)/C(=N\Nc4ccccc4)c4nc5ccc([N+](=O)[O-])cc5nc4O)cc3)cnc2c1` (stereo unspecified), the GI50 is > 100 µM (inactive) in assay [1]; 33.7 µM (inactive) in assay [2]; > 100 µM (inactive) in assay [3]; > 100 µM (inactive) in assay [4]; 23 µM (inactive) in assay [6]; 18.1 µM (inactive) in assay [7]. The GI50 in [8] is 55.5 µM (inactive); in assay [9], 24.8 µM (inactive); in assay [10], 28.5 µM (inactive); in assay [11], 55.1 µM (inactive); in assay [12] it was > 100 µM (inactive); in [13], > 100 µM (inactive). Moreover, the GI50 in [14] is 75.3 µM (inactive); in assay [15] it was > 100 µM (inactive).

In the case of `CC1(C)C(=O)C(=Cc2ccco2)C1=O`, the GI50 is > 100 µM (inactive) in assay [1]; > 100 µM (inactive) in assay [2]; > 100 µM (inactive) in assay [3]; > 100 µM (inactive) in [4]; over 100 µM in assay [5]; > 100 µM (inactive) in assay [6]. Besides, the GI50 in assay [7], in assay [8], in assay [9], in [11], in assay [14] and in assay [15] was > 100 µM (inactive) in each case. Also, the GI50 in assay [16] was > 100 µM (inactive).

For `NC1=NN(c2ccccc2)C(=O)C1/C(=N\NC(=O)c1cc2ccccc2cc1O)C(=O)Nc1ccc(Cl)cc1` (stereo unspecified), the GI50 in [1] was 22.8 µM (inactive); in [3], 32.1 µM (inactive); in [4] it was 25.1 µM (inactive); in [5], 10.5 µM; in [6] it was 21.8 µM (inactive); in assay [7] it was 13.5 µM (inactive). For the same molecule, the GI50 is 11.9 µM (inactive) in assay [8]; 24.7 µM (inactive) in assay [9]; 36.6 µM (inactive) in assay [10]; 23.9 µM (inactive) in [11]; 10.9 µM (inactive) in assay [12]; 6.78 µM (inactive) in assay [14]. In addition, the GI50 in [15] is 35.5 µM (inactive); in assay [16], 23.6 µM (inactive).

As to `COc1ccc(N2C(=O)C3CC(c4ccc(Br)cc4)c4c([nH]c5ccccc45)C3C2=O)cc1` (stereo unspecified), the GI50 in assay [1] was 16.9 µM (inactive); in assay [3] it was 5.81 µM (inactive); in [4] it was 11.5 µM (inactive); in [5] it was 90.6 µM; in assay [6], 11 µM (inactive); in assay [7], 4.92 µM (inactive). In addition, the GI50 is 6.4 µM (inactive) in assay [8]; 16.5 µM (inactive) in [9]; 3.91 µM (inactive) in [10]; 3.52 µM (inactive) in assay [11]; 10.8 µM (inactive) in [14]; 10.8 µM (inactive) in [15]. Also, the GI50 in assay [16] is 18.6 µM (inactive).

For `COc1cc(/C=C/c2ccc(OC)c(O)c2)cc(OC)c1`, the GI50 in assay [1] is 9.66 µM (inactive); in [3], 3.82 µM (inactive); in assay [4], 6.08 µM (inactive); in assay [5], 3.94 µM; in [6], 9.46 µM (inactive); in assay [7], 3.65 µM (inactive). Besides, the GI50 was 3.4 µM (inactive) in assay [8]; 4.18 µM (inactive) in [9]; 4.2 µM (inactive) in assay [10]; 2.39 µM (inactive) in assay [11]; 2.16 µM (inactive) in assay [12]; 1.25 µM (inactive) in [13]. The figures for the GI50 in assay [14], in assay [15] and in assay [16] were 3.35 µM (inactive), 1.96 µM (inactive) and 3.45 µM (inactive), respectively.
